Assay results reported in PubChem BioAssay AID1963983 (Molecular Pharmacology Branch, DTP, NCI, 2024).

System: 186277-243-T-J2-PDC multi-cell spheroid viability
Experiment: Anticancer human tumor 186277-243-T-J2-PDC patient-derived colon adenocarcinoma cell line growth inhibition [PI3K]
Conditions: for IC50: curve of first compound; for viability, T/C: stronger effect = lower value
Summary of the method: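 Tumor cells grown as multi-cell spheroids with HUVEC endothelial cells and MSC fibroblast-like stroma were treated with targeted agents combined with inavolisib, alpelisib, duvelisib or copanlisib. Doses fell in half-log steps from near clinical Cmax, else from 10 microM. Viability was measured.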
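Also: spheroids exposed to compounds for seven days before viability reading.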
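For viability, T/C in this document: 100% = DMSO vehicle control viability.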

## CC1(C)CCC(Nc2ncc(C(F)(F)F)c(-c3c[nH]c4c(P(C)(C)=O)c(C#N)ccc34)n2)CN1 (configuration not stated) + Cc1nc(NC(=O)N2CCCC2C(N)=O)sc1-c1ccnc(C(C)(C)C(F)(F)F)c1
Second compound 0.0316 µM
  IC50: 3560 nM
Second compound 0.1 µM
  IC50: 4030 nM
Second compound 0.316 µM
  IC50: 2310 nM
Second compound 1 µM
  IC50: 541 nM
Second compound 3.16 µM
  IC50: < 31.6 nM
Second compound 10 µM
  IC50: < 31.6 nM
Second compound 0.0316 µM, first compound 0.0316 µM
  viability, T/C: 76.1%
Second compound 0.0316 µM, first compound 0.1 µM
  viability, T/C: 55.9%
Second compound 0.0316 µM, first compound 0.316 µM
  viability, T/C: 57.9%
Second compound 0.0316 µM, first compound 1 µM
  viability, T/C: 61.4%
Second compound 0.0316 µM, first compound 3.16 µM
  viability, T/C: 55.8%
Second compound 0.0316 µM, first compound 10 µM
  viability, T/C: 0.33%
Second compound 0.1 µM, first compound 0.0316 µM
  viability, T/C: 81.5%
Second compound 0.1 µM, first compound 0.1 µM
  viability, T/C: 54.2%
Second compound 0.1 µM, first compound 0.316 µM
  viability, T/C: 56.7%
Second compound 0.1 µM, first compound 1 µM
  viability, T/C: 59%
Second compound 0.1 µM, first compound 3.16 µM
  viability, T/C: 65%
Second compound 0.1 µM, first compound 10 µM
  viability, T/C: 0.22%
Second compound 0.316 µM, first compound 0.0316 µM
  viability, T/C: 77%
Second compound 0.316 µM, first compound 0.1 µM
  viability, T/C: 65.4%
Second compound 0.316 µM, first compound 0.316 µM
  viability, T/C: 55.4%
Second compound 0.316 µM, first compound 1 µM
  viability, T/C: 60.7%
Second compound 0.316 µM, first compound 3.16 µM
  viability, T/C: 48.7%
Second compound 0.316 µM, first compound 10 µM
  viability, T/C: 0.44%
Second compound 1 µM, first compound 0.0316 µM
  viability, T/C: 63.4%
Second compound 1 µM, first compound 0.1 µM
  viability, T/C: 57.9%
Second compound 1 µM, first compound 0.316 µM
  viability, T/C: 49.5%
Second compound 1 µM, first compound 1 µM
  viability, T/C: 49.2%
Second compound 1 µM, first compound 3.16 µM
  viability, T/C: 28.3%
Second compound 1 µM, first compound 10 µM
  viability, T/C: 0.27%
Second compound 3.16 µM, first compound 0.0316 µM
  viability, T/C: 31%
Second compound 3.16 µM, first compound 0.1 µM
  viability, T/C: 34.3%
Second compound 3.16 µM, first compound 0.316 µM
  viability, T/C: 21.6%
Second compound 3.16 µM, first compound 1 µM
  viability, T/C: 29.4%
Second compound 3.16 µM, first compound 3.16 µM
  viability, T/C: 8.8%
Second compound 3.16 µM, first compound 10 µM
  viability, T/C: 0.65%
Second compound 10 µM, first compound 0.0316 µM
  viability, T/C: 7.49%
Second compound 10 µM, first compound 0.1 µM
  viability, T/C: 7.95%
Second compound 10 µM, first compound 0.316 µM
  viability, T/C: 8.74%
Second compound 10 µM, first compound 1 µM
  viability, T/C: 4.41%
Second compound 10 µM, first compound 3.16 µM
  viability, T/C: 5.08%
Second compound 10 µM, first compound 10 µM
  viability, T/C: 1.35%
